Reference: patent publication US20230000869A1, “NOVEL ALK2 INHIBITORS AND METHODS FOR INHIBITING BMP SIGNALING” (The Brigham and Women's Hospital, Inc., priority 2017, published 2023)

Tests used:
ALK6 = molecular target: T1, ALK6 (Homo sapiens, UniProt O00238); experiment: TR-FRET enzymatic assay, ALK6 kinase, 1536-well; assay type: biochemical; settings: for IC50: 10 nM ALK, Ulight topo II substrate 50 nM, ATP 10 uM (Table 1); for ALK6 Span: span of the concentration-response curve
T1 construct: purchased Life technology (Fredrick, Md.) and/or CARNA BIOSCIENCES Inc. (Kobe, Japan)
T1 sequence (O00238 14-502): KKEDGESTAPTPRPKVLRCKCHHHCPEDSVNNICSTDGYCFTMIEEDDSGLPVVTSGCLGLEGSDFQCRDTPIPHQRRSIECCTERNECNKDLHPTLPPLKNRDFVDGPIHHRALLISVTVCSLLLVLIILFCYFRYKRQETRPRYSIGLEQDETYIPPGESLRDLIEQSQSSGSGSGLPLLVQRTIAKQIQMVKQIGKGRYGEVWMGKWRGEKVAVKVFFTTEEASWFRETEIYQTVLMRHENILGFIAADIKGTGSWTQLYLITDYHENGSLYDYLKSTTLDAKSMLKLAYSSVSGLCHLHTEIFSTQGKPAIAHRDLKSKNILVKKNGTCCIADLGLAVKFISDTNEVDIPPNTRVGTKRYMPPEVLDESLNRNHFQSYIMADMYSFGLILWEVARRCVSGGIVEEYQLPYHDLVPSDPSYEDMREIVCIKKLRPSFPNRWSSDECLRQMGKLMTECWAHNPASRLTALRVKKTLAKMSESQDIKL
Text: (§1) We have developed six ALK kinase enzyme assays for determination of compound activities on ALK1, ALK2, ALK3, ALK4, ALK5 and ALK6. For the assay development, we had tested a number of substrates and assay conditions that led to the final optimized assay protocols with good assay windows with signal to basal (S/B) ratios above 20 fold for all six ALK assays (FIG. 1). In our knowledge, these ALK kinase assays have not been reported elsewhere.
(§2) ALK1 and ALK2-ALK6 were obtained from Life technology (Fredrick, Md.) and CARNA BIOSCIENCES Inc. (Kobe, Japan). Ulight-DNA Topoisomerase 2 alpha (Thr-1342) peptide and Europium anti-phospho-DNA Topoisomerase 2 alpha (Thr-1342) antibody was from Perkin Elmer Inc. The kinase buffer was composed of 50 mM HEPES pH7.0, 10 mM MgCl2, 3 mM MnCl2, 0.005% Tween-20 and 2 mM DTT. The compound plates and the white solid MB assay plates were purchased from Greiner Bio-one (Monroe, N.C.).
(§3) The binding of Eu-anti-phospho-peptide antibody to the phosphorylated Ulight peptide substrate bring both Eu donor and Ulight acceptor dye into close proximity. Upon excitation at 320-340 nm, the emission energy from Eu donor is transferred to Ulight acceptor dye that will generate light at 665 nm. The intensity light emission is proportional to the level of the peptide phosphorylation by ALKs. The assay was optimized and performed in 1536 plate (Table 1). Briefly, the ALKs enzymatic assay was initiated by dispense 2.5 ul enzyme with a final concentration at 10 nM prepared in 1× kinase reaction buffer. The assay plate was then added with compounds with the Pintool station (23 nl/well compound dilutions in DMSO solution) that was followed by incubation at room temperature for 10 minutes. Then 2.5 ul/well substrate was added in which 50 nM peptide substrate mixed with 10 uM, 100 uM or 1 mM ATP (final concentration). The assay plate was incubated at room temperature for 60 minutes and the kinase reaction was stopped by addition of 5 ul/well of 4 nM Eu-anti-phospho-peptide antibody with 12 mM EDTA prepared in 1× detection buffer. The assay plate was measured in an EnVision plate reader (Perkin Elmer) in the TR-FRET detection mode (excitation at 340 nm and emission at 665 nm).

ALK2 = molecular target: T2, ALK2 (Homo sapiens, UniProt Q04771); experiment: TR-FRET enzymatic assay, ALK2 kinase, 1536-well; assay type: biochemical; settings: for IC50 / ALK2 Span: TR-FRET; for IC50: 10 nM ALK, Ulight topo II substrate 50 nM, ATP 10 uM (Table 1); for ALK2 Span: span of the concentration-response curve
T2 construct: purchased Life technology (Fredrick, Md.) and/or CARNA BIOSCIENCES Inc. (Kobe, Japan)
T2 sequence (Q04771 21-509): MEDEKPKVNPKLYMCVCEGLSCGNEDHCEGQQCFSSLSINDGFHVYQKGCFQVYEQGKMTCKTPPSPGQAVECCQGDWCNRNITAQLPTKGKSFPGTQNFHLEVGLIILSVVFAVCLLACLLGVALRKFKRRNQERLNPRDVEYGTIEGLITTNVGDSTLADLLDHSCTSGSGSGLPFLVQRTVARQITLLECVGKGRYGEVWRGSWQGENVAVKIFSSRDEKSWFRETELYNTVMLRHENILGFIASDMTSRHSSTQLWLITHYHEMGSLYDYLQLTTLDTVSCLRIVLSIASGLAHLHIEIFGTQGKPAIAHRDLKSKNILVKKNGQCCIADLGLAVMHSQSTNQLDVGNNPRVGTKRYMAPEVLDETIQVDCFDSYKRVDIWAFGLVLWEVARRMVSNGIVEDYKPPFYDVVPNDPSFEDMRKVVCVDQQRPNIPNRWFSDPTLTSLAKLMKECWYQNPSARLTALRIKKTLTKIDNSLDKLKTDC
Text: as §1, §2, §3

| SMILES | IC50 (ALK6) [nM] | ALK6 Span (ALK6) | IC50 (ALK2) [nM] | ALK2 Span (ALK2) | activity in ALK2 in the presence of 10, 100, or 1,000 uM ATP (ALK2; FIG. 3, ATP 10 uM versus 100 uM or 1 mM) |
| --- | --- | --- | --- | --- | --- |
| Cc1cc(-c2cnn3cc(N4CCC(N5CCN(C)CC5)CC4)cnc23)c2ccccc2n1 [Compound 8] | 2400 | 86.5 | 54.3 | 109.4 |  |
| Cc1cc(-c2cnn3cc(N4CCC(N5CCOCC5)CC4)cnc23)c2ccccc2n1 [Compound 11] | 2980 | 89.9 | 111 | ~117.5 |  |
| COc1cc2c(-c3cnn4cc(N5CCC(N6CCN(C)CC6)CC5)cnc34)ccnc2cc1F [Compound 15, 7-fluoro-6-methoxy-4-(6-(4-(4-methylpiperazin-1-yl)piperidin-1-yl)pyrazolo[1,5-a]pyrimidin-3-yl)quinoline] | 10300 | 80.81 | 102 | ~117.8 |  |
| Cc1cc(-c2cnn3cc(N4CCC(N5CCNCC5)CC4)cnc23)c2ccccc2n1 [Compound 34] | 4060 | 91.28 | 178 | ~117.8 |  |
| c1ccc2c(-c3cnn4cc(-c5ccc(N6CCNCC6)cc5)cnc34)ccnc2c1 [TRND00262637-13] |  |  |  |  | activity reduced in the higher ATP concentrations |
